Laboratory results as given in patent EP0391180A2, “Peptide derivatives of amino acids having a renin-inhibiting effect” (F. HOFFMANN-LA ROCHE AG, priority 1989, dated 1990).
Read-outs that look alike come from different tables or passages of the source.

Molecular target: T1, Human-Renin (Homo sapiens, UniProt P00797)
T1 sequence (P00797 67-406): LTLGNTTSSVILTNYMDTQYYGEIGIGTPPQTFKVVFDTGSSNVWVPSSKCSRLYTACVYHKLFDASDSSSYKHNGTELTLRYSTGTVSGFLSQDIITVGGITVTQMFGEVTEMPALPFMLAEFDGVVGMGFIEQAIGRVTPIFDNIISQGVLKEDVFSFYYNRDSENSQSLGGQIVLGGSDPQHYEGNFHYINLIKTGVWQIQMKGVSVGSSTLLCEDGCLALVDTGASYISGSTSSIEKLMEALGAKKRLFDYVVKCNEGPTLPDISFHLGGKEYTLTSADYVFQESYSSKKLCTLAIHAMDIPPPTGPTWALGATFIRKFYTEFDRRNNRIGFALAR
Test: In vitro test with pure human renin (angiotensin I production from human tetradecapeptide renin substrate, measured by RIA)
Assay type: biochemical
Experimental: In vitro-Test mit reinem Human-Renin
Der Test wird in Eppendorf Röhrchen durchgeführt. Die Inkubationsmischung besteht aus (1) 100 µl Human-Renin in Puffer A (0,1M Natriumphosphatlösung, pH 7,4, enthaltend 0,1% Rinderserumalbumin, 0,1 % Natriumazid und 1 mM Aethylendiamintetraessigsäure), genügend für eine Renin-Aktivität von 2-3 ng Angiotensin I/ ml/Std.; (2) 145 µl Puffer A; (3) 30 µl von 10 µM humanem Tetradekapeptid-Reninsubstrat (hTD) in 10 mM Salzsäure; (4) 15 µl Dimethylsulfoxid mit bzw. ohne Hemmer und (5) 10 µl einer 0,03 molaren Lösung von Hydroxychinolinsulfat in Wasser.
Die Proben werden drei Stunden bei 37°C bzw. 4°C in Triplikaten inkubiert. 2 x 100 µl Proben pro Versuchsröhrchen werden dann verwendet, um die Produktion von Angiotensin I via RIA (standard radioimmunoassay; Clinical Assay solid phase kit) zu messen. Kreuzreaktivitäten der verwendeten Antikörper im RIA sind: Angiotensin I 100 %; Angiotensin II 0,0013 %; hTD (Angiotensin I-Val-Ile-His-Ser-OH) 0,09 %. Die Produktion von Angiotensin I wird durch die Differenz zwischen dem Versuch bei 37°C und demjenigen bei 4°C bestimmt.
Folgende Kontrollen werden mitgeführt: • (a) Inkubation von hTD-Proben ohne Renin und ohne Hemmer bei 37°C und 4°C. Die Differenz zwischen diesen beiden Werten ergibt den Grundwert der Angiotensin I-Produktion. • (b) Inkubation von hTD-Proben mit Renin, jedoch ohne Hemmer bei 37°C und 4°C. Die Differenz zwischen diesen Werten ergibt den Maximalwert der Angiotensin I-Produktion.
In jeder Probe wird von der ermittelten Angiotensin I-Produktion der Grundwert der Angiotensin I-Produktion abgezogen. Die Differenz zwischen dem Maximalwert und dem Grundwert ergibt den Wert der maximalen Substrathydrolyse (=100%) durch Renin.
Die Resultate werden als IC₅₀-Werte angegeben, welche diejenige Konzentration des Hemmers bezeichnen, bei welcher die enzymatische Aktivität um 50% gehemmt wird. Die IC₅₀-Werte werden aus einer linearen Regressionskurve aus einem logit-log plot ermittelt.

[1] = pure human renin, substrate hTD, pH 7,4, incubation 3 h at 37°C vs 4°C, angiotensin I by RIA, IC50 from logit-log plot, read-out: IC₅₀-Werte

IC50 [1] [nM]	Structure (SMILES)	IC50 [nM]
2.6	CC(C)(C)OC(=O)N[C@@H](Cc1ccccc1)C(=O)N[C@@H](Cc1c[nH]cn1)C(=O)N[C@@H](CC1CCCCC1)C(O)CC1CCCCC1 (single isomer, unassigned) [E]	
0.2	C=C[C@H](CC)C[C@H](O)[C@H](CC1CCCCC1)NC(=O)[C@H](Cc1c[nH]cn1)NC(=O)[C@H](Cc1ccccc1)NC(=O)[C@H]1CCCN1C(=O)OC(C)(C)C [A, t-Butyl (R)-2-[[(S)-α-[[(S)-1-[[(1S,2S,4R)-1-(cyclohexylmethyl)-2-hydroxy-4-äthyl-5-hexenyl]carbamoyl]-2-imidazol-4-yläthyl]carbamoyl]phenäthyl]carbamoyl]-1-pyrrolidincarboxylat]	
1	CCC(CC)C[C@H](O)[C@H](CC1CCCCC1)NC(=O)[C@H](Cc1c[nH]cn1)NC(=O)[C@H](Cc1ccccc1)NC(=O)[C@H]1CCCN1C(=O)OC(C)(C)C [B, t-Butyl (R)-2-[[(S)-α-[[(S)-1-[[(1S,2S)-1-(cyclohexylmethyl)-2-hydroxy-4-äthylhexyl]carbamoyl]-2-imidazol-4-yläthyl]carbamoyl]phenäthyl]carbamoyl]-1-pyrrolidincarboxylat]	
4.2	C=C[C@H](CC)C[C@H](O)[C@H](CC1CCCCC1)NC(=O)[C@H](Cc1c[nH]cn1)NC(=O)[C@@H](CC(=O)C(C)(C)C)Cc1ccccc1 [C, (S)-N-[(1S,2S,4R)-1-(Cyclohexylmethyl)-4-äthyl-2-hydroxy-5-hexenyl]-α-[(R)-α-(3,3-dimethyl-2-oxobutyl)hydrocinnamamido]imidazol-4-propionamid]	

More lines, now with the values behind:

Structure (SMILES)	IC50 [1] [nM]	IC50 [nM]
CC(C)(C)OC(=O)N1CCC[C@@H]1C(=O)N[C@@H](Cc1ccccc1)C(=O)N[C@@H](Cc1c[nH]cn1)C(=O)N[C@@H](CC1CCCCC1)C(O)CC1CCCCC1 (single isomer, unassigned) [F]		1
C=C[C@H](CC)C[C@H](O)[C@H](CC1CCCCC1)NC(=O)[C@H](Cc1cnc[nH]1)NC(=O)[C@H](Cc1ccccc1)CS(=O)(=O)C(C)(C)C [D, (S)-α-[(S)-α-[(t-Butylsulfonyl)methyl]hydrocinnamamido]-N-[(1S,2S,4R)-1-(cyclohexylmethyl)-4-äthyl-2-hydroxy-5-hexenyl]imidazol-5-propionamid]	1	
CCC(F)(CC)C[C@H](O)[C@H](CC1CCCCC1)NC(=O)[C@H](Cc1c[nH]cn1)NC(=O)[C@@H](CC(=O)C(C)(C)C)Cc1ccccc1 [G, (S)-N-[(1S,2S)-1-(Cyclohexylmethyl)-4-äthyl-4-fluor-2-hydroxyhexyl]-α-[(R)-α-(3,3-dimethyl-2-oxobutyl)hydrocinnamamido]imidazol-4-propionamid]	5	
